{"source": "patent US20150038471A1", "about": "“PROCESS FOR PREVENTING OR MITIGATING BIOFOULING” (Baker Hughes Incorporated, priority 2010, published 2015)", "assay_type_in_all_cases": "cell-based", "key": {"[1]": {"system": "sulfate-reducing bacteria (SRB)", "experiment": "SRB surviving 3 h treatment, serial dilution enumeration (NACE TMO 194-2004)", "source_text": "Following the treatment, an aliquot of each sample was serially diluted (10-fold dilutions) into culture media for SRB to enumerate the survivors according to NACE TMO 194-2004."}, "[2]": {"system": "bacterial-fouled water taken from an oil production site", "experiment": "Turbidity of bacterial-fouled oilfield water culture in synthetic brine", "details": "600 nm after 24 hours", "method": "A sample of a bacterial-fouled water was taken from an oil production site and used as a culture base for testing of cinnamaldehyde as a bactericide. The culture was introduced into a synthetic brine (similar to that used for oilfield operations) and turbidity was measure at 600 nm after 24 hours."}, "[3]": {"system": "acid-producing bacteria (APB)", "experiment": "Mitigation of APB growth in seawater, dilution series bottles", "details": "600 ppm product; seawater 3% TDS; contact 20 hours; three replicate columns", "method": "Various biocidal blends with only 50% THPS, only XC800, and different mixtures were tested, along with a control, at preventing or mitigating APB growth. The media was seawater with 3% total dissolved solids (TDS). Contact times were 20 hours and the reaction volume was 50 ml, using 8 bottles per dilution series string. APB growth was measured from 0 to 4 in logarithmic units.\nIn FIG. 1, it is expected that the mitigation of APB growth would generally follow a straight line (dashed in FIG. 1) from 600 ppm THPS (50%) to 600 ppm XC800."}}}
{"molecule": "O=CC=Cc1ccccc1", "note": "[Cinnamaldehyde, cinnamaldehyde]", "values": [{"measurement": "SRB Surviving Treatment", "setting": "[1]; THPS 0 ppm, cinnamaldehyde 25 ppm", "value": "≧10^10 SRB/ml"}, {"measurement": "SRB Surviving Treatment", "setting": "[1]; THPS 0 ppm, cinnamaldehyde 50 ppm", "value": "≧10^10 SRB/ml"}, {"measurement": "Turbidity", "setting": "[2]; cinnamaldehyde 50 ppm", "value": 1.854}, {"measurement": "Turbidity", "setting": "[2]; cinnamaldehyde 125 ppm", "value": 0.973}, {"measurement": "Turbidity", "setting": "[2]; cinnamaldehyde 250 ppm", "value": 0.175}, {"measurement": "Turbidity", "setting": "[2]; cinnamaldehyde 375 ppm", "value": 0.103}, {"measurement": "Turbidity", "setting": "[2]; cinnamaldehyde 500 ppm", "value": 0.113}]}
{"molecule": "tetrakis hydroxymethyl phosphonium sulfate [50% THPS only]", "values": [{"measurement": "APB growth (0 to 4)", "setting": "[3]", "value": 1, "unit": "logarithmic units"}]}
{"molecule": "tetrakis hydroxymethyl phosphonium sulfate [THPS]", "values": [{"measurement": "SRB Surviving Treatment", "setting": "[1]; THPS 50 ppm, cinnamaldehyde 0 ppm", "value": "≧10^10 SRB/ml"}, {"measurement": "SRB Surviving Treatment", "setting": "[1]; THPS 100 ppm, cinnamaldehyde 0 ppm", "value": "≧10^10 SRB/ml"}, {"measurement": "SRB Surviving Treatment", "setting": "[1]; THPS 250 ppm, cinnamaldehyde 0 ppm", "value": "10^5 SRB/ml"}]}
